{
  "source": "BindingDB's records for doi:10.7270/Q2ZC817P",
  "about": "(The Scripps Research Institute Molecular Screening Center, 2007)",
  "note": "Structures can show the parent of a compound that is named as a salt.",
  "data": [
    {"molecular_target": "Sphingosine 1-phosphate receptor 1 (Homo sapiens, UniProt P21453)", "sequence (P21453 whole entry)": "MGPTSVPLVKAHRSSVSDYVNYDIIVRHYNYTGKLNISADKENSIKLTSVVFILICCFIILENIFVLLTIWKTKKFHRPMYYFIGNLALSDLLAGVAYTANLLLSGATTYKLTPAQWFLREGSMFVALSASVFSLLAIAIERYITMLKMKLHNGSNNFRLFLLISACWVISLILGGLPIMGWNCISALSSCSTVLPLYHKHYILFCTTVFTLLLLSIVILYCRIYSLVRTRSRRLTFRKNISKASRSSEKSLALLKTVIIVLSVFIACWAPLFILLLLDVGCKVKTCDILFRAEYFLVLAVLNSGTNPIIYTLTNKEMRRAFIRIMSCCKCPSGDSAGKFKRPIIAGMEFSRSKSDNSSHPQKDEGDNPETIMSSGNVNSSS", "test": "potentiators of S1P1 agonist response, dose response, cell-based, potentiator mode, 60K MLSMR set (AID 466)", "conditions": "not given", "units": {"EC50": "µM"}, "values": [
      {"molecule": "O=C(NCc1ccc2c(c1)OCO2)C1CC(=O)N(C2CCCCCCC2)C1", "note": "(configuration not stated) [1-cyclooctyl-5-keto-N-piperonyl-pyrrolidine-3-carboxamide]", "EC50": "> 95"},
      {"molecule": "COC(=O)c1cc(NCc2ccccc2F)ccc1N1CCOCC1", "note": "[5-[(2-fluorobenzyl)amino]-2-morpholino-benzoic acid methyl ester]", "EC50": 5.46},
      {"molecule": "COC(=O)CS(=O)(=O)c1nnc([C@H](Cc2ccccc2)NC(=O)OC(C)(C)C)o1", "note": "[SMR000046685]", "EC50": 8.44},
      {"molecule": "Cc1noc(/C=C/N(C)C)c1S(=O)(=O)N1CCN(c2ccccc2)CC1", "note": "[(E)-N,N-dimethyl-2-[3-methyl-4-(4-phenylpiperazin-1-yl)sulfonyl-1,2-oxazol-5-yl]ethenamine]", "EC50": "> 95"},
      {"molecule": "Cc1ccc(-c2csc3ncnc(Sc4nnc(CN5CCCCCC5=O)o4)c23)cc1", "note": "[1-[[5-[5-(4-methylphenyl)thieno[2,3-d]pyrimidin-4-yl]sulfanyl-1,3,4-oxadiazol-2-yl]methyl]azepan-2-one]", "EC50": 2.6},
      {"molecule": "CCOC(=O)c1cnc(-n2nc(C)cc2C)nc1NC1CCCCC1", "note": "[4-(cyclohexylamino)-2-(3,5-dimethyl-1-pyrazolyl)-5-pyrimidinecarboxylic acid ethyl ester]", "EC50": 5.91},
      {"molecule": "CCc1cc(-c2n[nH]cc2-c2ccc3c(c2)OCO3)c(O)cc1O", "note": "[SMR000060132]", "EC50": 6.57},
      {"molecule": "Cc1cc(C(=O)CSc2nnc(-c3ccco3)o2)c(C)n1-c1ccc2c(c1)OCCO2", "note": "[1-[1-(2,3-dihydro-1,4-benzodioxin-6-yl)-2,5-dimethyl-3-pyrrolyl]-2-[[5-(2-furanyl)-1,3,4-oxadiazol-2-yl]thio]ethanone]", "EC50": 9.32},
      {"molecule": "CN(C)c1oc(-c2ccc(OCc3ccccc3)cc2)nc1C#N", "note": "[2-(4-benzoxyphenyl)-5-(dimethylamino)oxazole-4-carbonitrile]", "EC50": 3.01},
      {"molecule": "Cn1ncnc2c(=O)n(C)c(=O)nc1-2", "EC50": 1.73},
      {"molecule": "CCC1CCCCN1C(=O)CSc1nnc(-c2c[nH]c3ccccc23)o1", "note": "(configuration not stated)", "EC50": 4.61},
      {"molecule": "CCCc1ccc(Oc2c[nH]nc2-c2ccc(O)cc2O)cc1", "note": "[(4E)-3-hydroxy-4-[4-(4-propylphenoxy)-1,2-dihydropyrazol-3-ylidene]-1-cyclohexa-2,5-dienone]", "EC50": 18.2},
      {"molecule": "Oc1ccc(-c2nc(-c3ccc(O)c(O)c3)cs2)cc1", "EC50": 13.1},
      {"molecule": "Oc1ccc(C2NCc3ccccc3-n3cccc32)cc1Cl", "note": "(configuration not stated) [2-chloranyl-4-(5,6-dihydro-4H-pyrrolo[1,2-a][1,4]benzodiazepin-4-yl)phenol;hydrochloride]", "EC50": 2.83},
      {"molecule": "CCc1c(C)sc(NC(=O)c2cc(-c3ccco3)on2)c1C#N", "note": "[MLS000087225]", "EC50": 3.67},
      {"molecule": "COc1ccc(-c2nc(-c3ccc(Br)o3)no2)cc1OC", "note": "[3-(5-bromanylfuran-2-yl)-5-(3,4-dimethoxyphenyl)-1,2,4-oxadiazole]", "EC50": 5.87},
      {"molecule": "CCOc1ccc(-c2noc(-c3cccnc3)n2)cc1OC", "note": "[3-(4-ethoxy-3-methoxy-phenyl)-5-(3-pyridyl)-1,2,4-oxadiazole]", "EC50": 0.77},
      {"molecule": "Cc1occc1C(=O)N1CCN(c2ccc(Cl)c(Cl)c2)CC1", "note": "[1-(3,4-dichlorophenyl)-4-(2-methyl-3-furoyl)piperazine]", "EC50": 5.18},
      {"molecule": "Cn1c(C(=O)N2CCc3ccccc3C2)cc2oc3ccccc3c21", "note": "[2-(3,4-dihydroisoquinolin-2(1H)-ylcarbonyl)-1-methyl-1H-[1]benzofuro[3,2-b]pyrrole]", "EC50": "> 30"},
      {"molecule": "CCCCOc1ncnc2c1[nH]c1ccccc12", "note": "[MLS000041483]", "EC50": 4.52},
      {"molecule": "CCOc1ccc(-c2nnc(-c3ccco3)o2)cc1OCC", "note": "[2-(3,4-Diethoxy-phenyl)-5-furan-2-yl-[1,3,4]oxadiazole]", "EC50": 1.04},
      {"molecule": "COc1ccc(-c2nc3cc(NC(=O)Cc4ccc(OC)c(OC)c4)ccc3o2)cc1", "note": "[2-(3,4-dimethoxyphenyl)-N-[2-(4-methoxyphenyl)-1,3-benzoxazol-5-yl]acetamide]", "EC50": 9.09},
      {"molecule": "O=C(NCc1ccccc1)N1CCN(c2ccc(Cl)c(Cl)c2)CC1", "note": "[4-(3,4-dichlorophenyl)-N-(phenylmethyl)-1-piperazinecarboxamide]", "EC50": 6.67},
      {"molecule": "CC(C)OCCCNc1ncnc2c1[nH]c1ccc(F)cc12", "EC50": 5.48},
      {"molecule": "CC(C)c1cc(C(F)(F)F)n2nc(C(=O)Nc3ccc4c(c3)OCO4)cc2n1", "note": "[5-Isopropyl-7-trifluoromethyl-pyrazolo[1,5-a]pyrimidine-2-carboxylic acid benzo[1,3]dioxol-5-ylamide]", "EC50": 2.84},
      {"molecule": "CCOc1ccc(S(=O)(=O)N2CCN(c3ccc(C)cc3C)CC2)cc1", "note": "[1-(2,4-dimethylphenyl)-4-(4-ethoxyphenyl)sulfonyl-piperazine]", "EC50": "> 95"},
      {"molecule": "COC(=O)C1=CN(CCCN2CCCC2=O)C=C(C(=O)OC)C1c1ccccc1C(F)(F)F", "EC50": "> 95"},
      {"molecule": "CC1CCc2nc(NC(=O)CSc3nc4ccccc4o3)sc2C1", "note": "(configuration not stated) [2-(1,3-benzoxazol-2-ylsulfanyl)-N-(6-methyl-4,5,6,7-tetrahydro-1,3-benzothiazol-2-yl)acetamide]", "EC50": "> 30"},
      {"molecule": "O=C(CSc1nc2ccccc2o1)Nc1ccc(N2CCOCC2)c(Cl)c1", "note": "[2-(1,3-benzoxazol-2-ylsulfanyl)-N-(3-chloranyl-4-morpholin-4-yl-phenyl)ethanamide]", "EC50": 1.25},
      {"molecule": "Cn1c(-c2c(N)n(C3CCCC3)c3nc4ccccc4nc23)nc2ccccc21", "note": "[1-cyclopentyl-3-(1-methyl-2-benzimidazolyl)-2-pyrrolo[3,2-b]quinoxalinamine]", "EC50": 1.56},
      {"molecule": "Cc1cc(C=Nn2cnnc2)c(C)n1-c1ccc(OCc2ccc(F)cc2)cc1", "note": "[MLS000112167]", "EC50": 0.502},
      {"molecule": "CCOC(=O)c1oc2cc(O)c(CC)cc2c(=O)c1-c1ccc2c(c1)OCCO2", "note": "[3-(2,3-dihydro-1,4-benzodioxin-6-yl)-6-ethyl-7-hydroxy-4-keto-chromene-2-carboxylic acid ethyl ester]", "EC50": "> 10"},
      {"molecule": "Oc1c(Cl)cc(Cl)cc1Sc1cc(Cl)cc(Cl)c1O", "EC50": 1.24},
      {"molecule": "c1ccc2c(c1)oc1c(N3CCN(Cc4ccc5c(c4)OCO5)CC3)ncnc12", "EC50": 6.55},
      {"molecule": "Nc1nnnn1N=C/C(Br)=C/c1ccccc1", "note": "[1-[[(Z)-2-bromanyl-3-phenyl-prop-2-enylidene]amino]-1,2,3,4-tetrazol-5-amine]", "EC50": "> 10"},
      {"molecule": "COc1ccc(-c2nc(-c3ccncc3)no2)cc1OC", "note": "[5-(3,4-dimethoxyphenyl)-3-(4-pyridyl)-1,2,4-oxadiazole]", "EC50": 1.2},
      {"molecule": "Cc1cc(N2CCN(c3nc4ccccc4s3)CC2)n2ncnc2n1", "note": "[2-[4-(5-methyl-[1,2,4]triazolo[1,5-a]pyrimidin-7-yl)-1-piperazinyl]-1,3-benzothiazole]", "EC50": 6.29},
      {"molecule": "CCc1cc2c(N3CCN(c4ccccc4)CC3)ncnc2s1", "note": "[6-ethyl-4-(4-phenyl-1-piperazinyl)thieno[2,3-d]pyrimidine]", "EC50": 8.06},
      {"molecule": "Cc1oc(-c2ccccc2)nc1Cn1cccc1C1=NC(c2ccccc2)CO1", "note": "(configuration not stated) [SMR000026251]", "EC50": 0.692},
      {"molecule": "CCn1nc(-c2ccccc2)nc2c(=O)n(C)c(=O)nc1-2", "note": "[1-Ethyl-6-methyl-3-phenyl-1H-pyrimido[5,4-e][1,2,4]triazine-5,7-dione]", "EC50": 4.29},
      {"molecule": "COCCn1c(C)cc(C(=O)CSc2nc3ccccc3c(=O)[nH]2)c1C", "note": "[2-[[2-[1-(2-methoxyethyl)-2,5-dimethyl-3-pyrrolyl]-2-oxoethyl]thio]-1H-quinazolin-4-one]", "EC50": 64.4},
      {"molecule": "CC(C)(CC(=O)N1CCN(c2ccc(Cl)cc2)CC1)CC1=NS(=O)(=O)c2ccccc2N1", "note": "[1-[4-(4-chlorophenyl)-1-piperazinyl]-4-(1,1-dioxo-4H-1,2,4-benzothiadiazin-3-yl)-3,3-dimethyl-1-butanone]", "EC50": 9.93},
      {"molecule": "CC(=O)Oc1ccc(-n2c(O)c3c(c2O)C2(C)C=CC3(C)O2)cc1", "note": "[MLS000107813]", "EC50": 13.4},
      {"molecule": "CCCS(=O)(=O)c1nnnn1-c1cccc(OC)c1", "note": "[1-(3-methoxyphenyl)-5-(propylsulfonyl)-1H-tetrazole]", "EC50": 3.19},
      {"molecule": "Cc1ccccc1OCCCCc1c(C)n[nH]c1C", "note": "[SMR000103095]", "EC50": 6.51},
      {"molecule": "Cc1cc(C=Nn2cnnc2)c(C)n1-c1ccc(OCc2ccccc2F)cc1", "note": "[MLS000112180]", "EC50": 0.803},
      {"molecule": "CCCC(=O)N1CCN(c2ccc(NC(=O)c3cc4ccccc4o3)cc2Cl)CC1", "note": "[MLS000096729]", "EC50": 8.63},
      {"molecule": "CCOc1ccc(C(=O)Nc2c(C(N)=O)oc3ccccc23)cc1", "note": "[3-[(4-ethoxybenzoyl)amino]-1-benzofuran-2-carboxamide]", "EC50": 3.67}
    ]},
    {"molecular_target": "Sphingosine 1-phosphate receptor 1 (Homo sapiens, UniProt P21453)", "test": "potentiators of S1P1 agonist response, dose response, cell-based, potentiator mode, 60K MLSMR set (AID 466)", "conditions": "inactive by the depositor's call", "units": {"EC50": "µM"}, "values": [
      {"molecule": "COc1ccc(S(=O)(=O)Cc2ccc(C(=O)N3CCN(c4ccc(Cl)cc4)CC3)o2)cc1", "note": "[MLS000120227]", "EC50": 14.7},
      {"molecule": "CCCC(=O)c1ccc(N2CCN(C(=O)c3ccccc3Br)CC2)c(F)c1", "note": "[1-[4-[4-(2-bromobenzoyl)piperazin-1-yl]-3-fluorophenyl]butan-1-one]", "EC50": 12.1},
      {"molecule": "c1ccc(CSc2nnc(-c3cccs3)o2)cc1", "note": "[2-(benzylthio)-5-(2-thienyl)-1,3,4-oxadiazole]", "EC50": 20.4},
      {"molecule": "Clc1ccc(CCNc2[nH]cnc3ncnc2-3)cc1", "note": "[SMR000017624]", "EC50": 10.6},
      {"molecule": "CCCC(=O)Nc1ccc(-c2nc3cc(C)c(C)cc3o2)cc1", "note": "[MLS000089940]", "EC50": 10.8},
      {"molecule": "COc1ccc(-c2cc(C(=O)NC3CCCC3)no2)cc1OC", "note": "[MLS000087117]", "EC50": 13.7},
      {"molecule": "CCN(CC)C(=O)Oc1ccc2c(=O)c(-c3ccc(OC)cc3)coc2c1", "note": "[MLS000083046]", "EC50": 10.9},
      {"molecule": "O=C(OC1CCCCC1)c1ccc(NC(=O)c2ccco2)cc1", "note": "[4-(2-furoylamino)benzoic acid cyclohexyl ester]", "EC50": 12.2},
      {"molecule": "CCN(CC)C(=O)Oc1ccc2c(=O)c(-c3ccccc3)coc2c1", "note": "[(4-oxidanylidene-3-phenyl-chromen-7-yl) N,N-diethylcarbamate]", "EC50": 27.2},
      {"molecule": "CCN(CC)c1ccc(-n2c(C)c(C(C)=O)c(C(C)=O)c2C)cc1", "note": "[1-[1-[4-(diethylamino)phenyl]-4-ethanoyl-2,5-dimethyl-pyrrol-3-yl]ethanone]", "EC50": 10.4},
      {"molecule": "CC(=O)Nc1ccc(S(=O)(=O)N2CCN(c3cccc(C)c3C)CC2)cc1", "note": "[MLS000115810]", "EC50": 16.7},
      {"molecule": "CCCOC(=O)c1ccc(OCC(O)Cn2c(C)nc3ccccc32)cc1", "note": "(configuration not stated) [4-[2-hydroxy-3-(2-methyl-1-benzimidazolyl)propoxy]benzoic acid propyl ester]", "EC50": 10},
      {"molecule": "COc1ccc(Cc2nc(-c3ccc(-n4cccc4)cc3)no2)cc1OC", "note": "[3-(4-pyrrol-1-ylphenyl)-5-veratryl-1,2,4-oxadiazole]", "EC50": 13.4},
      {"molecule": "Cc1cccc(N2CCN(C(=O)C3CCCN(S(=O)(=O)c4cccc5cccnc45)C3)CC2)c1C", "note": "(configuration not stated) [MLS000120299]", "EC50": 16.1}
    ]}
  ]
}
